# According to PMC3319563 (PLoS ONE, 2012):
# T1: AtuGSTH1-1 (Agrobacterium fabrum, UniProt A9CFJ9)
# T1 construct: gene Atu3701; homodimer by crystal symmetry
# T1 sequence (A9CFJ9 1-230): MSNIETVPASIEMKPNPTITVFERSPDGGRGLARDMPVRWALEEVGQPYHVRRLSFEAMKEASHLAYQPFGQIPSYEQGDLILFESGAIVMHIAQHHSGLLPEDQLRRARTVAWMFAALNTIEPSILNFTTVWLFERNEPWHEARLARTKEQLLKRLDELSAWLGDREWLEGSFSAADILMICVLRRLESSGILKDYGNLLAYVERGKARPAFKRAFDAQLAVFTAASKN
# Experiments:
# AtuGSTH1-1 [1] = target: T2, AtuGSTH1-1 (Agrobacterium fabrum, UniProt A9CFJ9, S25A); details: read-out: Km, (mM) (CDNB) / Km, (mM) (CuOOH); co-substrate GSH
# T2 construct: gene Atu3701
# AtuGSTH1-1 [2] = target: T3, AtuGSTH1-1 (Agrobacterium fabrum, UniProt A9CFJ9, R187A); details: read-out: Km, (mM) (CDNB) / Km, (mM) (CuOOH); co-substrate GSH
# T3 construct: gene Atu3701
# AtuGSTH1-1 [3] = target: T4, AtuGSTH1-1 (Agrobacterium fabrum, UniProt A9CFJ9, F22A); details: read-out: Km, (mM) (CDNB) / Km, (mM) (CuOOH); co-substrate GSH
# T4 construct: gene Atu3701
# AtuGSTH1-1 [4] = target: T1, AtuGSTH1-1; assay: steady-state kinetics, GST assay; format: biochemical; details: co-substrate GSH; 0.1 M potassium phosphate pH 6.5, 37 °C; read-out: Κm
# Source text: steady-state kinetics, GST assay on AtuGSTH1-1
# AtuGSTH1-1 [5] = target: T1, AtuGSTH1-1; assay: steady-state kinetics, thioltransferase assay; format: biochemical; details: co-substrate GSH; 0.1 M potassium phosphate pH 6.5, 37 °C; read-out: Κm
# Source text: steady-state kinetics, thioltransferase assay on AtuGSTH1-1
# [6] = substrate: CC(C)(OO)c1ccccc1; assay: steady-state kinetics, GSH-dependent peroxidase assay; format: biochemical, Agrobacterium fabrum; details: co-substrate GSH, 0.1 M potassium phosphate pH 6.5, 37 °C
# [7] = substrate: CC(C)(C)OO; assay: as above; format: biochemical, Agrobacterium fabrum; details: co-substrate GSH, 0.1 M potassium phosphate pH 6.5, 37 °C
molecule,measurement,setting,value
"O=[N+]([O-])c1ccc(Cl)c([N+](=O)[O-])c1 [CDNB, 1-chloro-2,4-dinitrobenzene]",Km,AtuGSTH1-1 [1],1.9 ± 0.18 mM
same,Km,AtuGSTH1-1 [2],7.1 ± 0.76 mM
same,Km,AtuGSTH1-1 [3],3.2 ± 0.39 mM
same,Km,AtuGSTH1-1 [4],1500 ± 90 µM
OCCSSCCO [HEDS],Km,AtuGSTH1-1 [5],4100 ± 120 µM
"AtuGSTH1-1 (Agrobacterium fabrum str. C58) (protein, homodimer by crystal symmetry) MSNIETVPASIEMKPNPTITVFERSPDGGRGLARDMPVRWALEEVGQPYHVRRLSFEAMKEASHLAYQPFGQIPSYEQGDLILFESGAIVMHIAQHHSGLLPEDQLRRARTVAWMFAALNTIEPSILNFTTVWLFERNEPWHEARLARTKEQLLKRLDELSAWLGDREWLEGSFSAADILMICVLRRLESSGILKDYGNLLAYVERGKARPAFKRAFDAQLAVFTAASKN",Km,[6],2700 ± 210 µM
same,kcat,[6],5.657 ± 0.101 s⁻¹
same,Km,[7],1600 ± 70 µM
same,kcat,[7],2.495 ± 0.0868 s⁻¹
